Assay results published in patent publication US12667585B2, “Immunotherapeutic nanoparticles and methods relating thereto” (Wake Forest University Health Sciences, priority 2019, dated 2026).

Tested on: BMDM, BMDC or AM cells
Assay: Real time RT-PCR of type I IFN and other inflammatory response genes
Type: cell-based, C57BL/6 mouse
Conditions: 100 nM cGAMP, 4 h
Protocol: Real time RT-PCR of type I IFN and other inflammatory response genes induced by NP-cGAMP. BMDM, BMDC or AM cells […] were seeded into 6-well plates and cultured for 24 h. The cells were then incubated at 37° C. with free cGAMP or NP-cGAMP (100 nM cGAMP) suspended in complete culture medium for 4 h. All cellular RNA was collected using TRIzol reagent (Thermo Fisher). One microgram of total RNA was transcribed into cDNA using High-Capacity cDNA Reverse Transcription Kit (Thermo Fisher), and real-time quantitative PCR (qPCR) was performed using PowerUp SYBR Green Master Mix (Thermo Fisher) with primers for amplification of Gapdh, Ifnb1, Cxcl9, Cxcl10, Tnf, Il6, Il12b, Il1b, Ifna1, Il10, and Tgfb1 genes. mRNA levels were normalized against the housekeeping gene GAPDH.

Nc1nc2c(ncn2[C@@H]2O[C@@H]3COP(=O)(O)O[C@H]4[C@@H](O)[C@H](n5cnc6c(N)ncnc65)O[C@@H]4COP(=O)(O)O[C@@H]2[C@@H]3O)c(=O)[nH]1 [free cGAMP, cyclic [G(2′,5′)pA(3′,5′)p]]
expression of Ifnb1, Ifna1 and other proinflammatory genes (Tnf, Il1b, Il6, Il12b, Cxcl9,10): only a modest increase
